Literature values as cited in article PMC7904743, “WIDOCK: a reactive docking protocol for virtual screening of covalent inhibitors” (Journal of Computer-Aided Molecular Design, 2021).
Read-outs that look alike come from different tables or passages of the source.

What was measured:
NUDT7 = conditions: protein labeling at 200 μM; experimental actives if % labeling higher than 50%; cited from earlier work
OTUB2 = conditions: experimental actives if % labeling higher than 50%, cited from earlier work
[1] = thiol reactivity, cited from earlier work
[2] = natural log of average rate constant k
[3] = natural logarithm of average rate constant
[4] = natural log of average kinetic rate constant
[5] = natural log of average rate constant

| SMILES | NUDT7 % labeling (NUDT7) [%] | OTUB2 % labeling (OTUB2) [%] | ln(avg k) [1, 2] | ln(avg k) [1, 3] | OTUB2 % labeling (OTUB2; OTUB2 protein labeling) [%] | ln(avg k) [1, 4] | ln(avg k) [1, 5] |
| --- | --- | --- | --- | --- | --- | --- | --- |
| O=C(CCl)Nc1cccc(I)c1 [PCM-0102154, O=C(CCl)Nc1cccc(I)c1] | 24 | 49 | -15.790 | -15.790 | – | – | – |
| O=C(CCl)Nc1ccccc1F [PCM-0102158, O=C(CCl)Nc1ccccc1F] | 0 | 51 | -16.146 | -16.146 | – | – | – |
| O=C(CCl)NNC(=O)C1COc2ccccc2O1 (stereo not shown) [PCM-0102384, O=C(CCl)NNC(=O)C1COc2ccccc2O1] | 0 | 27 | -17.088 | -17.088 | – | – | – |
| O=C(CCl)NCc1ccc2c(c1)OCO2 [PCM-0102578, O=C(CCl)NCc1ccc2c(c1)OCO2] | 0 | 16 | -16.736 | -16.736 | – | – | – |
| O=C(CCl)Nc1cc2c(cc1Cl)OCO2 [PCM-0102209, O=C(CCl)Nc1cc2c(cc1Cl)OCO2] | 13 | 27 | -16.385 | -16.385 | – | – | – |
| CCCNC(=O)NC(=O)CCl [PCM-0102702, CCCNC(=O)NC(=O)CCl] | 0 | 22 | -16.357 | -16.357 | – | – | – |
| N#CCc1ccc(NC(=O)CCl)cc1 [PCM-0102148, N#CCc1ccc(NC(=O)CCl)cc1] | 10 | 43 | -15.302 | -15.302 | – | – | – |
| Cc1ccc(S(=O)(=O)N2CCN(C(=O)CCl)CC2)cc1 [PCM-0102759, Cc1ccc(S(=O)(=O)N2CCN(C(=O)CCl)CC2)cc1] | 12 | – | – | – | 0 | -15.424 | -15.424 |
| CC(C)(C)CCNC(=O)CCl [PCM-0102853, CC(C)(C)CCNC(=O)CCl] | 0 | – | – | – | 0 | -17.028 | -17.028 |
| O=C(CCl)NCC12CC3CC(CC(C3)C1)C2 [PCM-0102706, O=C(CCl)NCC12CC3CC(CC(C3)C1)C2] | 0 | 65 | – | -16.508 | – | – | -16.508 |
| CC(NC(=O)CCl)C1CC2CCC1C2 (stereo not shown) [PCM-0102572, CC(NC(=O)CCl)C1CC2CCC1C2] | 0 | 0 | -17.138 | -17.138 | – | – | – |
| O=C(CCl)Nc1oncc1-c1ccccc1 [PCM-0102746, O=C(CCl)Nc1oncc1-c1ccccc1] | 0 | – | – | – | 64 | -16.489 | -16.489 |
| CN(Cc1ccco1)C(=O)CCl [PCM-0102672, CN(Cc1ccco1)C(=O)CCl] | 10 | 0 | -15.763 | -15.763 | – | – | – |
| CNC(=O)c1ccc(NC(=O)CCl)cc1 [PCM-0102267, CNC(=O)c1ccc(NC(=O)CCl)cc1] | 0 | 0 | -15.048 | -15.048 | – | – | – |
| CC1CCCCC1NC(=O)NC(=O)CCl (stereo not shown) [PCM-0102292, CC1CCCCC1NC(=O)NC(=O)CCl] | 0 | 24 | -15.785 | -15.785 | – | – | – |
| O=C(CCl)N(c1ccccc1)C1CCS(=O)(=O)C1 (stereo not shown) [PCM-0102755, O=C(CCl)N(c1ccccc1)C1CCS(=O)(=O)C1] | 17 | – | – | – | 0 | -15.253 | -15.253 |
| O=C(CCl)Nc1ccc2[nH]c(=O)[nH]c2c1 [PCM-0102866, O=C(CCl)Nc1ccc2[nH]c(=O)[nH]c2c1] | 0 | – | – | – | 30 | -15.702 | -15.702 |
| O=C(CCl)Nc1cccc2ccccc12 [PCM-0102396, O=C(CCl)Nc1cccc2ccccc12] | 12 | 54 | -16.060 | -16.060 | – | – | – |
| O=C(CCl)NCC#Cc1cccc(C(F)(F)F)c1 [PCM-0103011, O=C(CCl)NCC#Cc1cccc(C(F)(F)F)c1] | 0 | – | – | – | 84 | -16.650 | -16.650 |
| O=C(CCl)N1CCC(Cc2ccccc2)CC1 [PCM-0102492, O=C(CCl)N1CCC(Cc2ccccc2)CC1] | 18 | 18 | -16.081 | -16.081 | – | – | – |
| CNC(=O)c1cccc(NC(=O)CCl)c1 [PCM-0102113, CNC(=O)c1cccc(NC(=O)CCl)c1] | 0 | 0 | -15.492 | -15.492 | – | – | – |
| O=C(CCl)N1CCc2ccccc21 [PCM-0102160, O=C(CCl)N1CCc2ccccc21] | 0 | 0 | -15.869 | -15.869 | – | – | – |

| SMILES | NUDT7 % labeling (NUDT7) [%] | OTUB2 % labeling (OTUB2) [%] | ln(avg k) [1, 2] | ln(avg k) [1, 3] | OTUB2 % labeling (OTUB2; OTUB2 protein labeling) [%] | ln(avg k) [1, 4] | ln(avg k) [1, 5] |
| --- | --- | --- | --- | --- | --- | --- | --- |
| CC1(C)C2CCC1(C)C(NC(=O)CCl)C2 (stereo not shown) [PCM-0102315, CC1(C)C2CCC1(C)C(NC(=O)CCl)C2] | 0 | 0 | -16.417 | -16.417 | – | – | – |
| CC1(NC(=O)CCl)CCS(=O)(=O)C1 (stereo not shown) [PCM-0102230, CC1(NC(=O)CCl)CCS(=O)(=O)C1] | 0 | 0 | -16.090 | -16.090 | – | – | – |
| O=C(CCl)N1CCCCC1 [PCM-0102514, O=C(CCl)N1CCCCC1] | 0 | 0 | -16.289 | -16.289 | – | – | – |
| N#CC1(NC(=O)CCl)CCCCC1 [PCM-0102993, N#CC1(NC(=O)CCl)CCCCC1] | 8 | – | – | – | 0 | -16.137 | -16.137 |
| Cc1csc(CC(=O)NNC(=O)CCl)n1 [PCM-0102095, Cc1csc(CC(=O)NNC(=O)CCl)n1] | 0 | 51 | -16.857 | -16.857 | – | – | – |
| Cc1nnc(NC(=O)CCl)s1 [PCM-0102211, Cc1nnc(NC(=O)CCl)s1] | 0 | 0 | -15.999 | -15.999 | – | – | – |
| CC1CCCC(C)N1C(=O)CCl (stereo not shown) [PCM-0102616, CC1CCCC(C)N1C(=O)CCl] | 0 | 0 | -15.945 | -15.945 | – | – | – |
| Cc1oc(NC(=O)CCl)c(C#N)c1C [PCM-0102337, Cc1oc(NC(=O)CCl)c(C#N)c1C] | 0 | 45 | -15.944 | -15.944 | – | – | – |
| O=C(CCl)N1CCN(C(=O)C2COc3ccccc3O2)CC1 (stereo not shown) [PCM-0102996, O=C(CCl)N1CCN(C(=O)C2COc3ccccc3O2)CC1] | 0 | – | – | – | 13 | -15.549 | -15.549 |
| CC(c1nc2ccccc2s1)N(C)C(=O)CCl (stereo not shown) [PCM-0102793, CC(c1nc2ccccc2s1)N(C)C(=O)CCl] | 0 | – | – | – | 19 | -15.755 | -15.755 |
| CC(NC(=O)CCl)c1cccc(Cl)c1 (stereo not shown) [PCM-0102190, CC(NC(=O)CCl)c1cccc(Cl)c1] | 42 | 37 | -16.294 | -16.294 | – | – | – |
| CC1(c2ccccc2)NC(=O)N(NC(=O)CCl)C1=O (stereo not shown) [PCM-0102428, CC1(c2ccccc2)NC(=O)N(NC(=O)CCl)C1=O] | 0 | 0 | -17.653 | -17.653 | – | – | – |
| CC(c1ccc(Cl)cc1)N(C)C(=O)CCl (stereo not shown) [PCM-0102556, CC(c1ccc(Cl)cc1)N(C)C(=O)CCl] | 39 | 0 | -15.842 | -15.842 | – | – | – |
| O=C(CCl)NCc1ccccc1F [PCM-0102149, O=C(CCl)NCc1ccccc1F] | 0 | 62 | -16.082 | -16.082 | – | – | – |
| Cc1cc(S(N)(=O)=O)cc(NC(=O)CCl)c1C [PCM-0102165, Cc1cc(S(N)(=O)=O)cc(NC(=O)CCl)c1C] | 9 | 12 | -16.164 | -16.164 | – | – | – |
| CNC(=O)C1CN(C(=O)CCl)c2ccccc2O1 (stereo not shown) [PCM-0102221, CNC(=O)C1CN(C(=O)CCl)c2ccccc2O1] | 0 | 15 | -15.966 | -15.966 | – | – | – |
| O=C(CCl)Nc1cc(F)ccc1F [PCM-0102284, O=C(CCl)Nc1cc(F)ccc1F] | 0 | 28 | -15.941 | -15.941 | – | – | – |
| O=C(CCl)N1CCN(C(=O)c2cccs2)CC1 [PCM-0102306, O=C(CCl)N1CCN(C(=O)c2cccs2)CC1] | 0 | 0 | -15.421 | -15.421 | – | – | – |
| O=C(CCl)Nc1nc2ccc(F)cc2s1 [PCM-0102294, O=C(CCl)Nc1nc2ccc(F)cc2s1] | 89 | 0 | -15.413 | -15.413 | – | – | – |
| CN(C(=O)CCl)C(C)(C)C#N [PCM-0102782, CN(C(=O)CCl)C(C)(C)C#N] | 0 | – | – | – | 0 | -16.514 | -16.514 |
| CN(Cc1cc(C#N)ccc1F)C(=O)CCl [PCM-0102897, CN(Cc1cc(C#N)ccc1F)C(=O)CCl] | 7 | – | – | – | 0 | -15.579 | -15.579 |
